# ChEMBL document CHEMBL1201862, “PubChem BioAssay data set” (2004)
#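 Growth conditions: 96-well plates. Treatment: test compound, 48 hours, 5 concentrations. Analysis: linear interpolation between bracketing concentrations; unreached endpoints set to highest concentration. At the GI50, growth is halved.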 The source made the active and inactive calls. Rule as the data show it: active = GI50 up to about 1.1 µM and inactive = higher.
# Tests used:
# Experiment in all cases: growth of human tumour cells (NCI), 48 h
# MOLT-4 = tested on: MOLT-4
# ACHN = tested on: ACHN
# HOP-92 = tested on: HOP-92
# LOX IMVI = tested on: LOX IMVI
# HT-29 = tested on: HT-29
# 786-0 = tested on: 786-0
# TK-10 = tested on: TK-10
# OVCAR-3 = tested on: OVCAR-3
# NCI-H23 = tested on: NCI-H23
# OVCAR-4 = tested on: OVCAR-4
# MDA-N = tested on: MDA-N
# OVCAR-5 = tested on: OVCAR-5
# A498 = tested on: A498
# CAKI-1 = tested on: CAKI-1
# SK-MEL-2 = tested on: SK-MEL-2
# IGROV-1 = tested on: IGROV-1
# K562 = tested on: K562
# PC-3 = tested on: PC-3
# HOP-62 = tested on: HOP-62
# M14 = tested on: M14
# COLO 205 = tested on: COLO 205
# MDA-MB-435 = tested on: MDA-MB-435
# UACC-257 = tested on: UACC-257
# UACC-62 = tested on: UACC-62
# SW-620 = tested on: SW-620
# EKVX = tested on: EKVX
# CCRF-CEM = tested on: CCRF-CEM
# A549 = tested on: A549
# SK-MEL-5 = tested on: SK-MEL-5
# SNB-19 = tested on: SNB-19
# SN12C = tested on: SN12C
# NCI-H460 = tested on: NCI-H460
# BT-549 = tested on: BT-549
# SR = tested on: SR
# HL-60 = tested on: HL-60
# SK-OV-3 = tested on: SK-OV-3
# OVCAR-8 = tested on: OVCAR-8
# HCT-116 = tested on: HCT-116
# Malme-3M = tested on: Malme-3M
# HCC 2998 = tested on: HCC 2998
# RPMI-8226 = tested on: RPMI-8226
# MCF7 = tested on: MCF7
# NCI/ADR-RES = tested on: NCI/ADR-RES
# Hs-578T = tested on: Hs-578T
# UO-31 = tested on: UO-31
# SF-539 = tested on: SF-539
# HCT-15 = tested on: HCT-15
# SF-295 = tested on: SF-295
# RXF 393 = tested on: RXF 393
# SK-MEL-28 = tested on: SK-MEL-28
# NCI-H226 = tested on: NCI-H226
# MDA-MB-231 = tested on: MDA-MB-231
# KM12 = tested on: KM12
# SF-268 = tested on: SF-268
# U-251 = tested on: U-251
# NCI-H522 = tested on: NCI-H522
# DU-145 = tested on: DU-145
# T47D = tested on: T47D
# SNB-75 = tested on: SNB-75
structure (smiles),measurement,setting,value
Cc1ccc(O)c(-c2cscn2)c1,GI50,MOLT-4,35.1 µM (inactive)
same,GI50,ACHN,32 µM (inactive)
same,GI50,HOP-92,43.7 µM (inactive)
same,GI50,LOX IMVI,27.7 µM (inactive)
same,GI50,HT-29,62.5 µM (inactive)
same,GI50,786-0,33.2 µM (inactive)
same,GI50,TK-10,44.8 µM (inactive)
same,GI50,OVCAR-3,35.2 µM (inactive)
same,GI50,NCI-H23,39.4 µM (inactive)
same,GI50,OVCAR-4,54 µM (inactive)
same,GI50,MDA-N,40.2 µM (inactive)
same,GI50,OVCAR-5,11.2 µM (inactive)
same,GI50,A498,15.3 µM (inactive)
same,GI50,CAKI-1,39.3 µM (inactive)
same,GI50,SK-MEL-2,64 µM (inactive)
same,GI50,IGROV-1,55.7 µM (inactive)
same,GI50,K562,52 µM (inactive)
same,GI50,PC-3,39.8 µM (inactive)
same,GI50,HOP-62,33.3 µM (inactive)
same,GI50,M14,54.2 µM (inactive)
same,GI50,COLO 205,12.5 µM (inactive)
same,GI50,MDA-MB-435,52.6 µM (inactive)
same,GI50,UACC-257,73.1 µM (inactive)
same,GI50,UACC-62,55 µM (inactive)
same,GI50,SW-620,51.5 µM (inactive)
same,GI50,EKVX,32.2 µM (inactive)
same,GI50,CCRF-CEM,0.37 µM (active)
same,GI50,A549,29.7 µM (inactive)
same,GI50,SK-MEL-5,23.7 µM (inactive)
same,GI50,SNB-19,25.1 µM (inactive)
same,GI50,SN12C,35.2 µM (inactive)
same,GI50,NCI-H460,28.5 µM (inactive)
same,GI50,BT-549,74.5 µM (inactive)
same,GI50,SR,40.4 µM (inactive)
same,GI50,HL-60,1.81 µM (inactive)
same,GI50,SK-OV-3,32.6 µM (inactive)
same,GI50,OVCAR-8,42.9 µM (inactive)
same,GI50,HCT-116,30.4 µM (inactive)
same,GI50,Malme-3M,> 100 µM (inactive)
same,GI50,HCC 2998,24.7 µM (inactive)
same,GI50,RPMI-8226,36 µM (inactive)
same,GI50,MCF7,39.9 µM (inactive)
same,GI50,NCI/ADR-RES,51.9 µM (inactive)
same,GI50,Hs-578T,32.9 µM (inactive)
same,GI50,UO-31,22.8 µM (inactive)
same,GI50,SF-539,30.8 µM (inactive)
same,GI50,HCT-15,31.6 µM
same,GI50,SF-295,40 µM (inactive)
CCOC(=O)C1=C(C)N(Cc2ccc(Cl)cc2Cl)C2(O)C(OC)CC(=O)C3C(=O)N(c4ccccc4)C(=O)C132 (stereo not given),GI50,MOLT-4,1.79 µM (inactive)
same,GI50,ACHN,3.12 µM (inactive)
same,GI50,HOP-92,0.0541 µM (active)
same,GI50,RXF 393,1.11 µM (active)
same,GI50,LOX IMVI,1.05 µM (active)
same,GI50,HT-29,1.75 µM (inactive)
same,GI50,SK-MEL-28,1.97 µM (inactive)
same,GI50,786-0,1.47 µM (inactive)
same,GI50,TK-10,10 µM (inactive)
same,GI50,OVCAR-3,1.33 µM (inactive)
same,GI50,NCI-H23,3.46 µM (inactive)
same,GI50,NCI-H226,3.33 µM (inactive)
same,GI50,OVCAR-4,1.6 µM (inactive)
same,GI50,OVCAR-5,2.41 µM (inactive)
same,GI50,A498,10.8 µM (inactive)
same,GI50,CAKI-1,6.71 µM (inactive)
same,GI50,MDA-MB-231,1.38 µM (inactive)
same,GI50,SK-MEL-2,1.28 µM (inactive)
same,GI50,IGROV-1,4.34 µM (inactive)
same,GI50,K562,1.11 µM (active)
same,GI50,PC-3,2.64 µM (inactive)
same,GI50,HOP-62,0.995 µM (active)
same,GI50,KM12,2.63 µM (inactive)
same,GI50,M14,2.09 µM (inactive)
same,GI50,COLO 205,3.64 µM (inactive)
same,GI50,MDA-MB-435,2.63 µM (inactive)
same,GI50,UACC-257,3.52 µM (inactive)
same,GI50,UACC-62,3.13 µM (inactive)
same,GI50,SW-620,2.52 µM (inactive)
same,GI50,EKVX,3.4 µM (inactive)
same,GI50,CCRF-CEM,0.466 µM (active)
same,GI50,A549,2.34 µM (inactive)
same,GI50,SK-MEL-5,3.97 µM (inactive)
same,GI50,SNB-19,2.53 µM (inactive)
same,GI50,SF-268,2.26 µM (inactive)
same,GI50,U-251,1.5 µM (inactive)
same,GI50,SN12C,2.26 µM (inactive)
same,GI50,NCI-H460,2.92 µM (inactive)
same,GI50,BT-549,1.61 µM (inactive)
same,GI50,NCI-H522,2.01 µM (inactive)
same,GI50,SR,1.57 µM (inactive)
same,GI50,HL-60,2.24 µM (inactive)
same,GI50,OVCAR-8,1.95 µM (inactive)
same,GI50,HCT-116,1.39 µM (inactive)
same,GI50,Malme-3M,10.6 µM (inactive)
same,GI50,HCC 2998,2.08 µM (inactive)
same,GI50,RPMI-8226,1.21 µM (inactive)
same,GI50,DU-145,1.06 µM (active)
same,GI50,MCF7,1.91 µM (inactive)
same,GI50,NCI/ADR-RES,2.01 µM (inactive)
same,GI50,Hs-578T,9.06 µM (inactive)
same,GI50,T47D,0.244 µM (active)
same,GI50,SNB-75,< 0.01 µM (active)
same,GI50,UO-31,4.54 µM (inactive)
same,GI50,SF-539,2.86 µM (inactive)
same,GI50,HCT-15,1.36 µM
same,GI50,SF-295,4.43 µM (inactive)
